Species: Rattus norvegicus
Assay: Reduction in spontaneous neuronal firing in Sprague-Dawley rat at 10 uM
Format: functional
In the case of O=C(O)c1ccc2c(c1)[C@@H]1C=CC[C@@H]1[C@@H](c1ccc(Cl)cc1Cl)N2, the “inhibition (INH)” value is reported as 75%.

Test system: not listed separately
Assay: Agonist activity at human BKCa channel expressed in CHO cells assessed as increase in potassium current at 10 uM by PatchXpress electrophysiology assay relative to control
Format: functional
In the case of O=C(O)c1ccc2c(c1)[C@@H]1C=CC[C@@H]1[C@@H](c1ccc(C(F)(F)F)cc1)N2, the “fold change (FC)” value is reported as 6.
In the case of O=C(O)c1ccc2c(c1)[C@@H]1C=CC[C@@H]1CN2, the “fold change (FC)” value is reported as 0.6.
With O=C(O)c1ccc2c(c1)[C@@H]1C=CC[C@@H]1[C@@H](c1cccc(Cl)c1)N2 the “fold change (FC)” value was 2.2.
For O=C(O)c1ccc2c(c1)[C@@H]1C=CC[C@@H]1[C@@H](c1ccccc1)N2, the “fold change (FC)” value was 1.2.
With O=C(O)c1ccc2c(c1)[C@@H]1C=CC[C@@H]1[C@@H](c1ccccc1Cl)N2 the “fold change (FC)” value was 4.9.
With Cc1ccc([C@H]2Nc3ccc(C(=O)O)cc3[C@@H]3C=CC[C@H]23)c(C)c1 the “fold change (FC)” value was 8.9.
For O=C(O)c1ccc2c(c1)[C@@H]1C=CC[C@@H]1[C@@H](c1cccc(Cl)c1Cl)N2, the “fold change (FC)” value was 2.7.
With Cn1cc([C@H]2Nc3ccc(C(=O)O)cc3[C@@H]3C=CC[C@H]23)cn1 the “fold change (FC)” value was 1.
For O=C(O)c1ccc2c(c1)[C@@H]1C=CC[C@@H]1[C@@H](c1cccc(Br)c1)N2, the “fold change (FC)” value was 2.6.
With O=C(O)c1ccc2c(c1)[C@@H]1C=CC[C@@H]1[C@@H](c1ccc(Br)cc1)N2 the “fold change (FC)” value was 8.9.
For O=C(O)c1ccc2c(c1)[C@@H]1C=CC[C@@H]1[C@@H](c1ncc(Cl)cc1Cl)N2, the “fold change (FC)” value was 2.5.
With O=C(O)c1ccc2c(c1)[C@@H]1C=CC[C@@H]1[C@@H](c1ccc(Cl)cc1Cl)N2 the “fold change (FC)” value was 11.2.
For O=C(O)c1ccc2c(c1)[C@@H]1C=CC[C@@H]1[C@@H](c1ccc(Cl)cc1)N2, the “fold change (FC)” value was 7.3.
With O=C(O)c1ccc2c(c1)[C@@H]1C=CC[C@@H]1[C@@H](c1ccc(Cl)c(Cl)c1)N2 the “fold change (FC)” value was 12.1.
For CC(C)(C)[C@H]1Nc2ccc(C(=O)O)cc2[C@@H]2C=CC[C@@H]21, the “fold change (FC)” value was 0.8.
With Cc1cccc([C@H]2Nc3ccc(C(=O)O)cc3[C@@H]3C=CC[C@H]23)c1 the “fold change (FC)” value was 3.1.

Test system: not listed separately
Assay: Agonist activity at human BKCa channel expressed in CHO cells assessed as increase in potassium current at 3 uM by PatchXpress electrophysiology assay relative to control
Format: functional
With O=C(O)c1ccc2c(c1)[C@@H]1C(O)C(O)C[C@@H]1[C@@H](c1ccc(Cl)cc1Cl)N2 (some centres not stated) the “fold change (FC)” value was 0.9.
For O=C(O)c1ccc2nc(-c3ccc(Cl)cc3Cl)c3c(c2c1)CCC3, the “fold change (FC)” value was 1.
In the case of O=C(O)c1ccc2c(c1)[C@@H]1OCC[C@@H]1[C@@H](c1ccc(Cl)cc1Cl)N2, the “fold change (FC)” value is reported as 1.
For O=C(O)c1ccc2c(c1)[C@@H]1CCC[C@@H]1[C@@H](c1ccc(Cl)cc1Cl)N2, the “fold change (FC)” value was 4.6.
For O=C(O)c1ccc2c(c1)C1OCCC[C@@H]1[C@@H](c1ccc(Cl)cc1Cl)N2 (single isomer, unassigned), the “fold change (FC)” value was 1.5.
For CS(=O)(=O)NC(=O)c1ccc2c(c1)[C@@H]1C=CC[C@@H]1[C@@H](c1ccc(Cl)cc1Cl)N2, the “fold change (FC)” value was 2.7.
For O=C(O)Cc1ccc2c(c1)[C@@H]1C=CC[C@@H]1[C@@H](c1ccc(Cl)cc1Cl)N2, the “fold change (FC)” value was 1.5.
With O=C(O)c1ccc2c(c1)C1C=CCC[C@@H]1[C@@H](c1ccc(Cl)cc1Cl)N2 (single isomer, unassigned) the “fold change (FC)” value was 4.5.
In the case of O=C(O)c1ccc2c(c1)C1CCCC[C@@H]1[C@@H](c1ccc(Cl)cc1Cl)N2 (single isomer, unassigned), the “fold change (FC)” value is reported as 3.6.
With O=C(O)c1ccc2c(c1)[C@@H]1C=CC[C@@H]1[C@@H](c1ccc(Cl)cc1Cl)N2 the “fold change (FC)” value was 6.7.
For O=c1[nH]c(-c2ccc3c(c2)[C@@H]2C=CC[C@@H]2[C@@H](c2ccc(Cl)cc2Cl)N3)no1, the “fold change (FC)” value was 3.4.
With OCc1ccc2c(c1)[C@@H]1C=CC[C@@H]1[C@@H](c1ccc(Cl)cc1Cl)N2 the “fold change (FC)” value was 1.5.
For O=C(O)c1ccc2c(c1)CC[C@@H](c1ccc(Cl)cc1Cl)N2, the “fold change (FC)” value was 0.9.
With COC(=O)c1ccc2c(c1)[C@@H]1C=CC[C@@H]1[C@@H](c1ccc(Cl)cc1Cl)N2 the “fold change (FC)” value was 1.
For CONC(=O)c1ccc2c(c1)[C@@H]1C=CC[C@@H]1[C@@H](c1ccc(Cl)cc1Cl)N2, the “fold change (FC)” value was 2.2.

From ChEMBL document CHEMBL1158626, “Structure-activity relationship (SAR) investigations of tetrahydroquinolines as BKCa agonists” (2010)
